Key:
systemic scleroderma [1] = details: known preparations; cited from earlier work
[2] = cited from earlier work
normal fibroblasts = assay: 48-hour study of effect on cell growth in a culture of normal fibroblasts from healthy donors; type: cell-based; details: Fibroblast, 100-gamma per 1 ml of medium, read-out: reduction of the number of cells in the culture
Text: This fact explains to a certain degree the action mechanism of the preparation in cases of systemic scleroderma.

[3] = single administration by probe into the stomach to narcotized cats; type: in vivo
Experimental: After a 1,000 mg/kg dose, these symptoms are more pronounced.

rheumatoid arthritis = assay: clinical trial in patients with rheumatoid arthritis; type: in vivo
Experimental: (§1) The method of treatment consists in oral administration of the proposed preparation in 0.1 to 0.2 g doses in tablet form […], or in the form of a 5% solution for injections with 5 ml doses once a day. The daily dose shall not be over 0.6 g per patient.
The main group (69 persons) consisted of patients with rheumatoid arthritis in the 2nd and 3rd degree of activity.

systemic scleroderma [4] = assay: clinical treatment of systemic scleroderma; type: in vivo, patients
Experimental: as §1
Five patients were treated for systemic scleroderma. […] One of these patients, following a 1.5 year course of treatment, resumed work after a three-year interval caused by the disease.

[5] = chronic toxicity test, daily doses for three months, white rats; type: in vivo; details: for Index of anti-toxic function of the liver (quantity of isolated benzoic acid): P = 0.05
Experimental: […] Each dose was investigated in 20 animals (10 males and 10 females). Twenty rats served as controls. Changes in weight were recorded, the general status and behavior were observed, the peripheral blood picture was examined (hemoglobin, erythrocytes, leukocytes, thrombocytes, the leukocytary formula). For determining the functional state of the liver, kidneys, the pancreas, some biochemical indices of the urine (albumin, sugar, bile pigments) and the blood (sugar, cholesterol, bilirubin, urea, alkaline phosphatase, chlorides) were examined, just as the antitoxic function of the liver.
After the end of the tests the animals were slaughtered by decapitation: part of them immediately after the administration of the preparation, part-ten days later.
The internal organs of the slaughtered animals were examined both macro- and microscopically.

adrenal cortex = assay: corticosteroid concentration in the blood of rheumatoid arthritis or systemic lupus erythematosus patients during clinical trials; type: in vivo; details: regularly given
Text: Accordingly, the observed increase of the concentration of corticosteroids in the blood of rheumatoid arthritis or systemic lupus erythematosus patients, regularly given the proposed preparation during clinical trials in the above mentioned doses, testifies to its stimulating effect on the andrenal cortex.

[6] = system: systemic lupus erythematosus; assay: clinical treatment of systemic lupus erythematosus; type: in vivo, patients
Experimental: as §1
Eight patients were treated for systemic lupus erythematosus.

[7] = side effects and action on lasting administration, compared with known remedies for collagenoses; type: in vivo
[8] = acute toxicity, single dose by probe into the stomach, albino mice, 3 days observation (Litchfield and Wilcoxson); details: mouse, in vivo, po, albino mice 16-17 g, limits in parentheses
Experimental: The proposed preparation was tested for toxicity in the acute and chronic tests. The acute toxicity of the preparation was determined in tests in albino mice (weighing 16 to 17 g) by introducing (by means of a probe into the stomach) amounts equal to 1,000 to 5,000 mg/kg of the animals body weight. Each dose was tested in five animals. Observation was continued for three days.

[9] = most of the patients, continued treatment

For CC(C)Cc1ccc(C(C)C(=O)O)cc1 (stereo not shown) [Brufen], the “whether the above results are produced in systemic scleroderma” value (systemic scleroderma [1]) is given as “not produced”.
In the case of CCN(CC)CCCC(C)Nc1ccnc2cc(Cl)ccc12 (stereo not shown) [Delagil], the “complications of antimalarial preparations” value ([2]; treatment of collagenoses of a rheumatoid nature) is given as “cause leukopenia, and also affect the acoustic and optic nerves, the liver, the myocardium”.
In the case of Cc1[nH]c(=O)[nH]c(=O)c1S(=O)(=O)Nc1ccc(S(=O)(=O)c2ccc(NS(=O)(=O)c3c(C)[nH]c(=O)[nH]c3=O)cc2)cc1 [preparation, p,p-/2,4-dioxy-6-methyl pyrimidinyl-5-sulfonamino/diphenyl sulfone], the inhibition at 100 µg/mL (normal fibroblasts) is reported as 30%, the symptoms ([3]; single 500 mg/kg) is reported as “unrest is observed (motorial excitation, mewing, salivation and vomiting)” and the “time after administration at which unrest is observed” value ([3]; single 500 mg/kg) is reported as 10 to 20 min. The “condition on the second day after administration” value ([3]; single 1,000 mg/kg) was “returned to normal”, the symptoms ([3]; single 1,000 mg/kg) was “these symptoms are more pronounced. There is repeated vomiting and loss of appetite” and the visible changes ([3]; single 100 to 200 mg/kg) was “no visible changes”. The “articular index after treatment, average” value (rheumatoid arthritis; 61 patients, from 46-48 points) was 16-20 points, the “gravest patients who became capable of taking care of themselves unaided” value (rheumatoid arthritis; administration for 1.5 to 2 years, three bed-ridden for 3 to 5 years) was “Eight” and the “first compression force after treatment, average” value (rheumatoid arthritis; all the patients, from 14.4±1.7 kgf) was 22.0±2.1 kgf. For the same compound, the “corticosteroid content in the blood” value (rheumatoid arthritis; due to the increasing activity of the 11-oxicorticosteroids) was “increase”, the “patients with articular index without change” value (rheumatoid arthritis; during the period of treatment) was 8 patients and the “patients with reduced articular index” value (rheumatoid arthritis; during the period of treatment) was 61 patients. The “C-reactive protein after treatment” value (rheumatoid arthritis; from (++++), most of the patients, continued treatment) was “(++) and even (+)”, the “patients in whom the pain syndrome disappeared” value (rheumatoid arthritis; majority of patients, on the 10th to 12th day) was 51 and the ESR (rheumatoid arthritis; [9]) was “reduction”. For the same compound, the “reduction of the sialic acid content of the blood” value (rheumatoid arthritis; [9]) was 0.05 optical density units, the “time to beginning of improvement of therapeutic indices” value (rheumatoid arthritis; not later than, after the beginning of treatment) was 3 to 4 weeks and the “patients in whom morning-time torpidity disappeared completely” value (rheumatoid arthritis; of 69 patients) was 48 patients. For the same compound, the “patients managing on essentially reduced doses of corticosteroids” value (rheumatoid arthritis; of the eight gravest patients) was “six”, the “patients who do not need corticosteroids any more” value (rheumatoid arthritis; of the eight gravest patients) was “two” and the “patients with only an abatement of the pain syndrome (arthralgia)” value (rheumatoid arthritis; other patients) was 18 patients. For the same compound, the “period of morning-time torpidity after treatment” value (rheumatoid arthritis; other patients, shortened from 103.3±14.4 min) was 41.4 ± 9.73 min, the “patients with abatement of morning-time torpidity and greater scope of joint movement” value (rheumatoid arthritis; out of the 69 patients) was 59 patients and the leukocyte count (rheumatoid arthritis; patients with leukopenias or leukocytoses accompanying rheumatoid arthritis) was “tendency towards the normalization”. The “pain syndrome towards the end of the first week of treatment” value (rheumatoid arthritis; rheumatoid arthritis) was “tangibly abated”, the “patients in whom improvement took much longer” value (rheumatoid arthritis; rheumatoid arthritis) was 8 patients and the “reduction of skin induration, flexion contracture of the hand and sensation of skin tension” value (systemic scleroderma [4]; five patients) was “All of them manifested a reduction”. The “patients who resumed work” value (systemic scleroderma [4]; of five patients, 1.5 year course, after a three-year interval) was “One”, the “Index of anti-toxic function of the liver (quantity of isolated benzoic acid)” value ([5]; females, after 3 months of 100 mg/kg oral doses (controls 10.1±5.1)) was 10.9±2.2 and the “Index of anti-toxic function of the liver (quantity of isolated benzoic acid)” value ([5]; males, after 3 months of 100 mg/kg oral doses (controls 6.68±0.33)) was 6.5±1.14. The “fattiness at post mortem examination” value ([5]; rat, in vivo) was “good fattiness”, the “macro- and microscopic examination of organs” value ([5]; rat, in vivo) was “no pathological changes” and the “weight of thyroid gland, testes, spleen and adrenal glands versus control group” value ([5]; rat, in vivo) was “did not differ”. The “concentration of corticosteroids in the blood” value (adrenal cortex) was “increase”, the complete recovery ([6]; of eight patients, intake for two years) was “one” and the “effect in the other cases on complications due to corticosteroids and quinoline preparations” value ([6]; other cases of eight patients) was “substantially alleviate the complications”. The “function of the adrenal cortex” value ([7]; as testified by rising corticosteroids content of the blood) was “stimulates the function of the adrenal cortex”, the “complications of indole derivatives (ulceration, mental disorders)” value ([7]; even when used for many years) was “does not cause such complications” and the “dosage of prescribed corticosteroids” value ([7]; in vivo) was “to be reduced and, in individual cases, discontinuing them altogether”. For the same compound, the “general and water-and-salt metabolic disorders” value ([7]; in vivo) was “does not cause general and water-and-salt metabolic disorders”, the toxicity ([7]; in vivo) was “low toxicity” and the “complications of antimalarials (leukopenia; acoustic and optic nerves, liver, myocardium)” value ([7]; lasting administration (1-2 years and more)) was “does not cause the above-mentioned complications”. For the same compound, the pre-existing metabolic disorders ([7]; when present) was “tend to normalize” and the LD50 at 72 h [8] was 2600 mg/kg.
In the case of COc1ccc2c(c1)c(CC(=O)O)c(C)n2C(=O)c1ccc(Cl)cc1 [Indometacin], the “whether the above results are produced in systemic scleroderma” value (systemic scleroderma [1]) is given as “not produced”, the mental disorders ([2]; derivatives of indole) is given as “confused consciousness, somnolency” and the ulcerogenic effect ([2]; derivatives of indole, ulceration of the stomach, esophagus, the intestine) is given as “possess an ulcerogenic effect”.

From US4151281A, “Medicinal preparation for the treatment of collagenoses of a rheumatoid nature” (priority 1977, dated 1979)
